Values quoted from earlier work in patent US20210299023A1, “COMPOSITIONS AND METHODS FOR HAIR GROWTH” (Allergan, Inc., priority 2010, published 2021).

Experiments:
eyelash = settings: healthy patients
bald scalp of macaques = settings: 0.05% latanoprost

Compound	eyelash growth (eyelash)	hair growth (bald scalp of macaques)	density and thickness of hair (bald scalp of macaques; after 3 months of treatment)
CCNC(=O)CCC/C=C\C[C@@H]1[C@@H](/C=C/[C@@H](O)CCc2ccccc2)[C@H](O)C[C@@H]1O [Bimatoprost, bimatoprost]	increased length, thickness, and darkness		
CC(C)OC(=O)CCC/C=C\C[C@@H]1[C@@H](CC[C@@H](O)CCc2ccccc2)[C@H](O)C[C@@H]1O [latanoprost]		significant hair growth	increased significantly
